Data: ChEMBL document CHEMBL2146392, “Minutissamides E-L, antiproliferative cyclic lipodecapeptides from the cultured freshwater cyanobacterium cf. Anabaena sp” (Bioorg Med Chem, 2012)
The source made the active and inactive calls.

Key:
[1] = system: Mycolicibacterium smegmatis; assay: Antibacterial activity against Mycobacterium smegmatis at 10 ug/ml; format: functional, organism-based
Staphylococcus aureus = assay: Antibacterial activity against Staphylococcus aureus at 10 ug/ml; format: functional, organism-based
Enterococcus faecalis = assay: Antibacterial activity against Enterococcus faecalis at 10 ug/ml; format: functional, organism-based
Streptococcus pneumoniae = assay: Antibacterial activity against Streptococcus pneumoniae at 10 ug/ml; format: functional, organism-based
Acinetobacter baumannii = assay: Antibacterial activity against Acinetobacter baumannii at 10 ug/ml; format: functional, organism-based
Escherichia coli = assay: Antibacterial activity against Escherichia coli at 10 ug/ml; format: functional, organism-based
Pseudomonas aeruginosa = assay: Antibacterial activity against Pseudomonas aeruginosa at 10 ug/ml; format: functional, organism-based
MDA-MB-435 = assay: Antiproliferative activity against human MDA-MB-435 cells assessed as cell viability at 1 ng/ml after 96 hrs; format: functional; conditions: MDA-MB-435, 96 h, read-out: Activity

C/C=C1/NC(=O)[C@H](C(C)C)NC(=O)[C@H](O)[C@@H]([C@@H](C)CCCCCCCC(Cl)CC)NC(=O)[C@@H]2CCCN2C(=O)[C@H](CC(N)=O)N(C)C(=O)[C@H]([C@@H](C)OC)NC(=O)CNC(=O)[C@H](CCC(N)=O)NC(=O)[C@H]([C@@H](C)O)NC(=O)[C@H]([C@@H](C)O)NC1=O (stereo partly drawn)
inactive: Activity [1] | Activity (Staphylococcus aureus) | Activity (Enterococcus faecalis) | Activity (Streptococcus pneumoniae) | Activity (Acinetobacter baumannii) | Activity (Escherichia coli) | Activity (Pseudomonas aeruginosa)

C/C=C1/NC(=O)[C@H](C(C)C)NC(=O)[C@H](O)[C@@H]([C@@H](C)CCCCCCCCCCC(=O)CCC)NC(=O)[C@@H]2CCCN2C(=O)[C@H](CC(N)=O)N(C)C(=O)[C@H]([C@@H](C)OC)NC(=O)[C@@H](C)NC(=O)[C@H](CCC(N)=O)NC(=O)[C@H](C(C)C)NC(=O)[C@H]([C@@H](C)O)NC1=O
inactive: Activity [1] | Activity (Staphylococcus aureus) | Activity (Enterococcus faecalis) | Activity (Streptococcus pneumoniae) | Activity (Acinetobacter baumannii) | Activity (Escherichia coli) | Activity (Pseudomonas aeruginosa)

CC[C@]1(O)C[C@@H]2CN(CCc3c([nH]c4ccccc34)[C@@](C(=O)OC)(c3cc4c(cc3OC)N(C)[C@H]3[C@@](O)(C(=O)OC)[C@H](OC(C)=O)[C@]5(CC)C=CCN6CC[C@]43[C@@H]65)C2)C1 [VINBLASTINE]
49%: viability at 0.001 µg/mL (MDA-MB-435)

C/C=C1/NC(=O)[C@H](C(C)C)NC(=O)[C@H](O)[C@@H]([C@@H](C)CCCCCCCCCCC(=O)CCC)NC(=O)[C@@H]2CCCN2C(=O)[C@H](CC(N)=O)N(C)C(=O)[C@H]([C@@H](C)OC)NC(=O)CNC(=O)[C@H](CCC(N)=O)NC(=O)[C@H]([C@@H](C)O)NC(=O)[C@H]([C@@H](C)O)NC1=O
inactive: Activity [1] | Activity (Staphylococcus aureus) | Activity (Enterococcus faecalis) | Activity (Streptococcus pneumoniae) | Activity (Acinetobacter baumannii) | Activity (Escherichia coli) | Activity (Pseudomonas aeruginosa)

C/C=C1/NC(=O)[C@H](C(C)C)NC(=O)[C@H](O)[C@@H]([C@@H](C)CCCCCCCCCCC(O)CCC)NC(=O)[C@@H]2CCCN2C(=O)[C@H](CC(N)=O)N(C)C(=O)[C@H]([C@@H](C)OC)NC(=O)[C@@H](C)NC(=O)[C@H](CCC(N)=O)NC(=O)[C@H]([C@@H](C)O)NC(=O)[C@H]([C@@H](C)O)NC1=O (stereo partly drawn)
inactive: Activity [1] | Activity (Staphylococcus aureus) | Activity (Enterococcus faecalis) | Activity (Streptococcus pneumoniae) | Activity (Acinetobacter baumannii) | Activity (Escherichia coli) | Activity (Pseudomonas aeruginosa)

C/C=C1/NC(=O)[C@H](C(C)C)NC(=O)[C@H](O)[C@@H]([C@@H](C)CCCCCCCCCCC(=O)CCC)NC(=O)[C@@H]2CCCN2C(=O)[C@H](CC(N)=O)N(C)C(=O)[C@H]([C@@H](C)OC)NC(=O)[C@@H](C)NC(=O)[C@H](CCC(N)=O)NC(=O)[C@H]([C@@H](C)O)NC(=O)[C@H]([C@@H](C)O)NC1=O
inactive: Activity [1] | Activity (Staphylococcus aureus) | Activity (Enterococcus faecalis) | Activity (Streptococcus pneumoniae) | Activity (Acinetobacter baumannii) | Activity (Escherichia coli) | Activity (Pseudomonas aeruginosa)

C/C=C1/NC(=O)[C@H](C(C)C)NC(=O)[C@H](O)[C@@H]([C@@H](C)CCCCCCCC(Cl)CC)NC(=O)[C@@H]2CCCN2C(=O)[C@H](CC(N)=O)N(C)C(=O)[C@H]([C@@H](C)OC)NC(=O)[C@@H](C)NC(=O)[C@H](CCC(N)=O)NC(=O)[C@H]([C@@H](C)O)NC(=O)[C@H]([C@@H](C)O)NC1=O (stereo partly drawn)
inactive: Activity [1] | Activity (Staphylococcus aureus) | Activity (Enterococcus faecalis) | Activity (Streptococcus pneumoniae) | Activity (Acinetobacter baumannii) | Activity (Escherichia coli) | Activity (Pseudomonas aeruginosa)
